Measured values from ChEMBL document CHEMBL3217680, “Synthesis and antiproliferative activity of some 3-(pyrid-2-yl)-pyrazolines” (Medchemcomm, 2013).
Activity calls are given as the source filed them. The rule behind the calls is not given here.

Tests used:
[1] = tested on: MDA-MB-231; assay: Antiproliferative activity against human MDA-MB-231 cells by MTS assay; assay type: functional, cell-based
[2] = tested on: HT-29; assay: Antiproliferative activity against human HT-29 cells by MTS assay; assay type: functional, cell-based
[3] = tested on: HT-29; assay: Inhibition of microtubule formation in human HT-29 cells at 5 uM using Dm1a tubulin antibodies by confocal microscopy; assay type: cell-based
[4] = biological target: T1, Tubulin (Homo sapiens) (UniProt P68371+Q9H4B7+P0DPH7+P68366+Q13509+Q71U36+P04350+Q3ZCM7+P07437+P68363+Q9BQE3+Q6PEY2+Q13885+Q9BVA1+Q9BUF5); assay: Inhibition of tubulin (unknown origin) polymerization at 20 uM; assay type: protein-complex assay
[5] = tested on: HT-29; assay: Cell cycle arrest in human HT-29 cells assessed as accumulation at G2/M phase at 5 uM by […]propidium iodide staining-based FACS analysis (reference value: 22.8 %); assay type: functional
[6] = tested on: HT-29; assay: Cell cycle arrest in human HT-29 cells assessed as accumulation at S phase at 5 uM by […]propidium iodide staining-based FACS analysis (reference value: 13.6 %); assay type: functional
[7] = tested on: HT-29; assay: Cell cycle arrest in human HT-29 cells assessed as accumulation at G1 phase at 5 uM by […]propidium iodide staining-based FACS analysis (reference value: 60.2 %); assay type: functional
[8] = tested on: HT-29; assay: Cell cycle arrest in human HT-29 cells assessed as accumulation at G2/M phase at 1 uM by […]propidium iodide staining-based FACS analysis (reference value: 22.8 %); assay type: functional
[9] = tested on: HT-29; assay: Cell cycle arrest in human HT-29 cells assessed as accumulation at S phase at 1 uM by […]propidium iodide staining-based FACS analysis (reference value: 13.6 %); assay type: functional
[10] = tested on: HT-29; assay: Cell cycle arrest in human HT-29 cells assessed as accumulation at G1 phase at 1 uM by […]propidium iodide staining-based FACS analysis (reference value: 60.2 %); assay type: functional
[11] = tested on: HT-29; assay: Cell cycle arrest in human HT-29 cells assessed as accumulation at G2/M phase at 100 nM by […]propidium iodide staining-based FACS analysis (reference value: 22.8 %); assay type: functional
[12] = tested on: HT-29; assay: Cell cycle arrest in human HT-29 cells assessed as accumulation at S phase at 100 nM by […]propidium iodide staining-based FACS analysis (reference value: 13.6 %); assay type: functional
[13] = tested on: HT-29; assay: Cell cycle arrest in human HT-29 cells assessed as accumulation at G1 phase at 100 nM by […]propidium iodide staining-based FACS analysis (reference value: 60.2 %); assay type: functional
[14] = tested on: MDA-MB-468; assay: Growth inhibition of human MDA-MB-468 cells; assay type: functional
[15] = Growth inhibition of human BT549 cells; assay type: functional; conditions: BT-549
[16] = tested on: T47D; assay: Growth inhibition of human T47D cells; assay type: functional
[17] = tested on: MCF7; assay: Growth inhibition of human MCF7 cells; assay type: functional
[18] = tested on: MDA-MB-231; assay: Growth inhibition of human MDA-MB-231 cells; assay type: functional
[19] = Growth inhibition of human Hs 578T cells; assay type: functional
[20] = tested on: PC-3; assay: Growth inhibition of human PC3 cells; assay type: functional
[21] = tested on: DU-145; assay: Growth inhibition of human DU145 cells; assay type: functional
[22] = tested on: TK-10; assay: Growth inhibition of human TK10 cells; assay type: functional
[23] = Growth inhibition of human UO31 cells; assay type: functional; conditions: UO-31
[24] = tested on: CAKI-1; assay: Growth inhibition of human CAKI-1 cells; assay type: functional
[25] = Growth inhibition of human RXF393 cells; assay type: functional; conditions: RXF 393
[26] = tested on: SN12C; assay: Growth inhibition of human SN12C cells; assay type: functional
[27] = tested on: A498; assay: Growth inhibition of human A498 cells; assay type: functional
[28] = tested on: ACHN; assay: Growth inhibition of human ACHN cells; assay type: functional
[29] = tested on: SK-OV-3; assay: Growth inhibition of human SKOV3 cells; assay type: functional
[30] = tested on: 786-0; assay: Growth inhibition of human 786-0 cells; assay type: functional
[31] = Growth inhibition of human OVCAR5 cells; assay type: functional; conditions: OVCAR-5
[32] = Growth inhibition of human OVCAR8 cells; assay type: functional; conditions: OVCAR-8
[33] = Growth inhibition of human NCI-ADR-RES cells; assay type: functional
[34] = Growth inhibition of human OVCAR3 cells; assay type: functional; conditions: OVCAR-3
[35] = Growth inhibition of human OVCAR4 cells; assay type: functional; conditions: OVCAR-4
[36] = Growth inhibition of human UACC62 cells; assay type: functional; conditions: UACC-62
[37] = tested on: IGROV-1; assay: Growth inhibition of human IGROV1 cells; assay type: functional
[38] = tested on: SK-MEL-28; assay: Growth inhibition of human SK-MEL-28 cells; assay type: functional
[39] = tested on: SK-MEL-5; assay: Growth inhibition of human SK-MEL-5 cells; assay type: functional
[40] = Growth inhibition of human UACC257 cells; assay type: functional; conditions: UACC-257
[41] = tested on: MDA-MB-435; assay: Growth inhibition of human MDA-MB-435 cells; assay type: functional
[42] = tested on: SK-MEL-2; assay: Growth inhibition of human SK-MEL-2 cells; assay type: functional
[43] = tested on: Malme-3M; assay: Growth inhibition of human MALME-3M cells; assay type: functional
[44] = tested on: M14; assay: Growth inhibition of human M14 cells; assay type: functional
[45] = tested on: SNB-75; assay: Growth inhibition of human SNB75 cells; assay type: functional
[46] = tested on: U-251; assay: Growth inhibition of human U251 cells; assay type: functional
[47] = Growth inhibition of human LOXIMVI cells; assay type: functional; conditions: LOX IMVI
[48] = Growth inhibition of human SF539 cells; assay type: functional; conditions: SF-539
[49] = tested on: SNB-19; assay: Growth inhibition of human SNB19 cells; assay type: functional
[50] = tested on: SF-268; assay: Growth inhibition of human SF268 cells; assay type: functional
[51] = tested on: SW-620; assay: Growth inhibition of human SW620 cells; assay type: functional
[52] = tested on: HT-29; assay: Growth inhibition of human HT-29 cells; assay type: functional
[53] = tested on: KM12; assay: Growth inhibition of human KM12 cells; assay type: functional
[54] = Growth inhibition of human HCT15 cells; assay type: functional; conditions: HCT-15
[55] = tested on: HCT-116; assay: Growth inhibition of human HCT116 cells; assay type: functional
[56] = Growth inhibition of human HCC2998 cells; assay type: functional; conditions: HCC 2998
[57] = tested on: COLO 205; assay: Growth inhibition of human COLO205 cells; assay type: functional
[58] = tested on: NCI-H322M; assay: Growth inhibition of human NCI-H322M cells; assay type: functional
[59] = tested on: NCI-H460; assay: Growth inhibition of human NCI-H460 cells; assay type: functional
[60] = tested on: NCI-H522; assay: Growth inhibition of human NCI-H522 cells; assay type: functional
[61] = tested on: NCI-H226; assay: Growth inhibition of human NCI-H226 cells; assay type: functional
[62] = tested on: NCI-H23; assay: Growth inhibition of human NCI-H23 cells; assay type: functional
[63] = Growth inhibition of human EKVX cells; assay type: functional
[64] = tested on: HOP-62; assay: Growth inhibition of human HOP62 cells; assay type: functional
[65] = Growth inhibition of human HOP92 cells; assay type: functional; conditions: HOP-92
[66] = tested on: SR; assay: Growth inhibition of human SR cells; assay type: functional
[67] = tested on: A549; assay: Growth inhibition of human A549/ATCC cells; assay type: functional
[68] = tested on: RPMI-8226; assay: Growth inhibition of human RPMI8226 cells; assay type: functional
[69] = Growth inhibition of human MOLT4 cells; assay type: functional; conditions: MOLT-4
[70] = tested on: HL-60(TB); assay: Growth inhibition of human HL-60(TB) cells; assay type: functional
[71] = tested on: CCRF-CEM; assay: Growth inhibition of human CCRF-CEM cells; assay type: functional
[72] = tested on: HT-29; assay: Inhibition of microtubule formation in human HT-29 cells at 100 nM using Dm1a tubulin antibodies by confocal microscopy; assay type: cell-based
[73] = biological target: T1, Tubulin (Homo sapiens); assay: Induction of tubulin (unknown origin) polymerization at 5 uM; assay type: protein-complex assay

O=C(c1ccccc1)N1N=C(c2ccccn2)C[C@H]1c1ccccc1
IC50 [1]: > 500000 nM | IC50 [2]: > 500000 nM

CC(=O)N1N=C(c2ccccn2)CC1c1ccccc1 (configuration not stated)
IC50 [1]: 294000 nM | IC50 [2]: 161000 nM

COc1cc(C(=O)N2N=C(c3ccccn3)C[C@@H]2c2ccccc2)cc(OC)c1OC
inhibition [3]: Active | inhibition [4]: Active | Activity [5]: 94.8% | Activity [6]: 2% | Activity [7]: 2.3% | Activity [8]: 49.7% | Activity [9]: 10.3% | Activity [10]: 38.5% | Activity [11]: 88.8% | Activity [12]: 2.8% | Activity [13]: 7.9% | GI50 [14]: 417 nM | GI50 [15]: 5130 nM | GI50 [16]: > 100000 nM | GI50 [17]: 324 nM | GI50 [18]: 989 nM | GI50 [19]: 9180 nM | GI50 [20]: > 100000 nM | GI50 [21]: 4260 nM | GI50 [22]: > 100000 nM | GI50 [23]: 5010 nM | GI50 [24]: 493 nM | GI50 [25]: 1030 nM | GI50 [26]: 3530 nM | GI50 [27]: 943 nM | GI50 [28]: 4290 nM | GI50 [29]: 762 nM | GI50 [30]: 1540 nM | GI50 [31]: 4010 nM | GI50 [32]: 3280 nM | GI50 [33]: 519 nM | GI50 [34]: 719 nM | GI50 [35]: 5950 nM | GI50 [36]: 541 nM | GI50 [37]: 7130 nM | GI50 [38]: 1510 nM | GI50 [39]: 432 nM | GI50 [40]: > 100000 nM | GI50 [41]: 273 nM | GI50 [42]: 699 nM | GI50 [43]: > 100000 nM | GI50 [44]: 801 nM | GI50 [45]: 277 nM | GI50 [46]: 868 nM | GI50 [47]: 1130 nM | GI50 [48]: 1060 nM | GI50 [49]: 1890 nM | GI50 [50]: 33400 nM | GI50 [51]: 567 nM | GI50 [52]: 431 nM | GI50 [53]: 711 nM | GI50 [54]: 848 nM | GI50 [55]: 586 nM | GI50 [56]: 2320 nM | GI50 [57]: 585 nM | GI50 [58]: > 100000 nM | GI50 [59]: 505 nM | GI50 [60]: 688 nM | GI50 [61]: 1330 nM | GI50 [62]: 3450 nM | GI50 [63]: > 100000 nM | GI50 [64]: 1820 nM | GI50 [65]: > 100000 nM | GI50 [66]: 415 nM | GI50 [67]: 952 nM | GI50 [68]: 66300 nM | GI50 [69]: 4460 nM | GI50 [70]: 747 nM | GI50 [71]: 2080 nM | IC50 [1]: 690 nM | IC50 [2]: 2530 nM

c1ccc(C2CC(c3ccccn3)=NN2c2ccccc2)cc1 (configuration not stated)
IC50 [1]: 60200 nM | IC50 [2]: 53800 nM

COc1cc2c(c(OC)c1OC)-c1ccc(OC)c(=O)cc1[C@@H](NC(C)=O)CC2 [COLCHICINE]
inhibition [72]: Active | IC50 [1]: 8 nM | IC50 [2]: 8 nM

COc1cc(/C=C/C(=O)c2ccccn2)cc(OC)c1OC
IC50 [1]: 9700 nM | IC50 [2]: 9600 nM

CNC(=S)N1N=C(c2ccccn2)C[C@H]1c1ccccc1
IC50 [1]: 20700 nM | IC50 [2]: 25600 nM

NC(=S)N1N=C(c2ccccn2)C[C@H]1c1ccccc1
IC50 [1]: 140000 nM | IC50 [2]: 350000 nM

COc1cc(C2CC(c3ccccn3)=NN2c2ccccc2)cc(OC)c1OC (configuration not stated)
IC50 [1]: 4360 nM | IC50 [2]: 26200 nM

O=C(N1N=C(c2ccccn2)CC1c1ccccc1)C(F)(F)F (configuration not stated)
IC50 [1]: > 500000 nM | IC50 [2]: > 500000 nM

CN1N=C(c2ccccn2)CC1c1ccccc1 (configuration not stated)
IC50 [1]: 135000 nM | IC50 [2]: 116000 nM

COc1cc(C2CC(c3ccccn3)=NN2C(C)=O)cc(OC)c1OC (configuration not stated)
IC50 [1]: 52500 nM | IC50 [2]: > 500000 nM

COc1cc(C(=O)N2N=C(c3ccccn3)CC2c2cc(OC)c(OC)c(OC)c2)cc(OC)c1OC (configuration not stated)
IC50 [1]: 11400 nM | IC50 [2]: 22500 nM

CC(=O)O[C@H]1C(=O)[C@@]2(C)[C@H]([C@H](OC(=O)c3ccccc3)[C@]3(O)C[C@H](OC(=O)[C@H](O)[C@@H](NC(=O)c4ccccc4)c4ccccc4)C(C)=C1C3(C)C)[C@]1(OC(C)=O)CO[C@@H]1C[C@@H]2O
Activity [73]: Active
